From a flash point compilation (Sun et al. 2020)
Structures can show the parent of a compound that is named as a salt.

Tests used:
[1] = not given; remark: listed apart in the source
[2] = not given; remark: listed apart in the source
[3] = not given; remark: listed apart in the source

flash point [2] | Structure (SMILES) | other results
74 °C | CC(C)CC(=O)O [3-methylbutanoic acid] | flash point [1]: 70.00 °C
44 °C | CCOCCO [2-ethoxyethanol] | flash point [1]: 41.00 °C
-11 °C | CC#CCCC [2-hexyne] | flash point [3]: -10 °C
102 °C | CCCCCCCCCCCCC [tridecane] | flash point [1]: 79.00 °C; flash point [3]: 94 °C
15 °C | CC(=O)OC(C)(C)C [tert-butyl acetate] | flash point [1]: 22.00 °C
65 °C | C1CCCCCCCCC1 [cyclodecane] | flash point [3]: 59 °C
46 °C | CCCCC=CCCCC [5-decene] | 
10 °C | O=C1CCC1 [cyclobutanone] | 
12 °C | C1CCSC1 [thiacyclopentane] | 
-26 °C | CC(C)(C)S [2-methyl-2-propanethiol] | flash point [3]: -24 °C
33 °C | C=CCCO [3-buten-1-ol] | 
7 °C | CCCNCCC [dipropylamine] | 
77 °C | C=CCCCCCCCCCC [1-dodecene] | flash point [3]: 73 °C
-3 °C | CSC(C)(C)C [t-butyl methyl sulfide] | 
37 °C | Cc1ccnc(C)c1 [2,4-dimethylpyridine] | 
96 °C | CCOC(=O)CCCC(=O)OCC [diethyl glutarate] | 
27 °C | CC(C)CO [2-methyl-1-propanol] | 
74 °C | Ic1ccccc1 [iodobenzene] | 
11 °C | CCCC(=O)OC [methyl butyrate] | 
6 °C | CC(=O)C(C)=O [2,3-butanedione] | 
1 °C | CCCCNC [N-methylbutylamine] | 

flash point [2] | Structure (SMILES) | other results
41 °C | C#CCCCCCC#C [1,8-nonadiyne] | flash point [3]: 42 °C
150 °C | O=C1OCCO1 [ethylene carbonate] | 
-9 °C | CC(C)(C)OC=O [t-butyl formate] | 
88 °C | CCCC(=O)c1ccccc1 [1-phenyl-1-butanone] | 
45 °C | C=Cc1ccc(C)cc1 [4-methylstyrene] | 
67 °C | CC(C)(C)SSC(C)(C)C [di-tert-butyl disulfide] | 
45 °C | CCC(C)c1ccccc1 (stereo unspecified) [sec-butylbenzene] | 
73 °C | Cc1cccc(C)c1O [2,6-dimethylphenol] | 
50 °C | C#CCCCCCCCC [1-decyne] | flash point [3]: 48 °C
38 °C | CC1=CC2C(CC1)C2(C)C (stereo unspecified) [2-carene] | 
6 °C | CCCC(CC)CC [3-ethylhexane] | 
101 °C | OCCCCCCO [1,6-hexanediol] | 
-3 °C | CC1=CCCCC1 [1-methylcyclohexene] | flash point [3]: -1 °C
-24 °C | C1=COCC1 [2,3-dihydrofuran] | 
69 °C | CCN(C#N)CC [diethylcyanamide] | 
88 °C | CCCCCC#CC(=O)OC [methyl 2-octynoate] | 
33 °C | CC(=O)SC(C)(C)C [S-t-butyl thioacetate] | 
43 °C | Cc1ccccc1Cl [2-chlorotoluene] | 
19 °C | CCC(C)CS (stereo unspecified) [2-methyl-1-butanethiol] | 
-25 °C | NC1CC1 [cyclopropylamine] | 

The next lines start with the compound.

Structure (SMILES) | flash point [2] | other results
CC(C)c1ccccc1 [Cumene] |  | flash point: 44.00 °C
C/C=C/C=O [Crotonaldehyde] |  | flash point: 13.00 °C
CCOC(=O)CC [Ethyl propionate] |  | flash point: 12.00 °C
CCC(Cl)[N+](=O)[O-] (stereo unspecified) [1-Chloro-1-nitropropane] |  | flash point: 62.00 °C
CCCc1ccccc1 [Propyl benzene] |  | flash point: 30.00 °C
Cc1cccc([N+](=O)[O-])c1 [m-Nitrotoluene] |  | flash point: 106.00 °C
CC(CCO)CC(C)(C)C (stereo unspecified) [3,5,5-trimethyl-1-hexanol] | 79 °C | flash point [3]: 80 °C
Cc1ccc(C)cc1 [p-Xylene] |  | flash point: 27.00 °C
c1ccsc1 [Thiophene] |  | flash point: -1.00 °C
Nc1ccccc1[N+](=O)[O-] [o-Nitroaniline] |  | flash point: 168.00 °C
CCCCCCCN [n-Heptylamine] |  | flash point: 54.00 °C
CC(=O)Nc1ccccc1 [Acetanilide] |  | flash point: 174.00 °C
CCCCS [Butyl mercaptan] |  | flash point: 2.00 °C
CC(=O)CC(C)C [Isobutyl methyl ketone] |  | flash point: 17.00 °C
O=C(Cl)c1ccccc1 [Benzoyl chloride] |  | flash point: 72.00 °C
CCCCCC(=O)O [Caproic acid] |  | flash point: 102.00 °C
CC1CCCC1 [methylcyclopentane] | -29 °C | flash point [1]: -24.00 °C; flash point [3]: -23 °C
C=CCC=CC [1,4-Hexadiene] |  | flash point: -21.00 °C
Cc1cccc(N)c1C [Xylidine] |  | flash point: 97.00 °C
c1ccc2ccccc2c1 [Naphthalene] |  | flash point: 79.00 °C
N#Cc1ccccc1 [Benzonitrile] |  | flash point: 85.00 °C
CCOC(=O)CCl [Ethyl chloroacetate] |  | flash point: 66.00 °C
O=Cc1ccco1 [Furfural] |  | flash point: 60.00 °C
C=CC(=O)OC [Methyl acrylate] |  | flash point: -3.00 °C
Oc1ccccc1 [Phenol] |  | flash point: 79.00 °C
NCCNCCN [Diethylenetriamine] |  | flash point: 102.00 °C
CC=CC=CC=O [2,4-Hexadienal] |  | flash point: 68.00 °C

Structure (SMILES) | flash point [2] | other results
C/C=C/C(=O)OCC [Ethyl crotonate] |  | flash point: 2.00 °C
COC(=O)OC [dimethyl carbonate] | 18 °C | flash point [1]: -1.00 °C
C1COCCN1 [morpholine] | 35 °C | flash point [1]: 38.00 °C
CCCBr [1-bromopropane] | 21 °C | flash point [1]: 26.00 °C
C=C1CCCC1 [methylenecyclopentane] | -19 °C | flash point [3]: -18 °C
CCCCBr [1-bromobutane] | 13 °C | flash point [1]: 18.00 °C
CC1=CCCC1 [1-methylcyclopentene] | -17 °C | flash point [3]: -19 °C
C1=CCC=CC1 [1,4-cyclohexadiene] | -6 °C | flash point [3]: -11 °C
CC(C)(C)OOC(C)(C)C [di-tert-butyl peroxide] | 12 °C | 
CC(C)=CC=C(C)C [2,5-dimethyl-2,4-hexadiene] | 29 °C | flash point [3]: 24 °C
c1ccc2c(c1)CCCC2 [1,2,3,4-tetrahydronaphthalene] | 77 °C | 
NCCNCCN [diethylenetriamine] | 97 °C | flash point [3]: 90 °C
CC(=O)CCC(C)=O [2,5-hexanedione] | 79 °C | 
CCBr [bromoethane] | -20 °C | flash point [1]: -23.00 °C
C=C(C)CCC [2-methyl-1-pentene] | -26 °C | 
CNC(C)C [N-methyl-2-propanamine] | -31 °C | 
CCCCCCC(=O)O [heptanoic acid] | 112 °C | 
CC(C)Br [2-bromopropane] | 1 °C | 
CC(C)(C)ON=O [t-butyl nitrite] | -23 °C | 
CNc1ccccc1 [N-methylaniline] | 80 °C | 
CCCCCCCCC=O [n-nonanal] | 71 °C | 
CNC [dimethylamine] | -18 °C | 
Cc1ccccn1 [2-picoline] | 28 °C | 
CCCCOCCOC(C)=O [2-butoxyethyl acetate] | 71 °C | 
ClC1CCCCC1 [chlorocyclohexane] | 32 °C | flash point [3]: 28 °C
CCCCCCCS [1-heptanethiol] | 41 °C | 
C=C=C [1,2-propadiene] | -101 °C | 

Structure (SMILES) | flash point [2] | other results
CCN1CCCCC1 [1-ethylpiperidine] | 18 °C | 
Cc1ccncc1 [4-methylpyridine] | 37 °C | 
CCCCC=O [pentanal] | 8 °C | flash point [1]: 12.00 °C
N#CC1CCCCC1 [cyclohexanecarbonitrile] | 65 °C | 
COCCOC(C)=O [2-methoxyethylacetate] | 45 °C | flash point [3]: 43 °C
C=C(C)C(=C)C [2,3-dimethyl-1,3-butadiene] | -22 °C | 
C1=CCCC=CCC1 [1,5-cyclooctadiene] | 32 °C | flash point [3]: 35 °C
Cc1ccc(C)c(O)c1 [2,5-dimethylphenol] | 95 °C | 
CCC(O)C(C)C (stereo unspecified) [2-methyl-3-pentanol] | 46 °C | 
Oc1ccc(O)cc1 [hydroquinone] | 165 °C | 
CCCCl [1-chloropropane] | -31 °C | flash point [1]: -18.00 °C
SC1CCCCC1 [cyclohexanethiol] | 43 °C | 
CC(C)CCl [1-chloro-2-methylpropane] | 21 °C | flash point [1]: -10.00 °C
Cc1ccc(O)c(C)c1 [2,4-dimethylphenol] | 94 °C | 
CCCCCOC(C)=O [n-pentyl acetate] | 25 °C | 
CC(=O)OC(C)(C)C [acetic acid, 1,1-dimethylethyl ester] | 16 °C | 
CCCS [1-propanethiol] | -21 °C | 
N#CC1CC1 [cyclopropanecarbonitrile] | 32 °C | 
CC(Cl)(Cl)Cl [1,1,1-trichloroethane] | -1 °C | 
N#CCCO [3-hydroxypropanenitrile] | 129 °C | 
CCCCNC(C)=O [N-butylacetamide] | 116 °C | 
C=CC(=O)OCCCC [butyl acrylate] | 39 °C | 
CCCCC(CC)CO (stereo unspecified) [2-ethyl-1-hexanol] | 77 °C | 
CC1=CC=CC1 [methylcyclopentadiene] | 26 °C | 
CCc1ccc(CC)cc1 [1,4-diethylbenzene] | 56 °C | 
